Reference: patent publication US20260325533A1, “CDK INHIBITOR COMPOUNDS” (ALEKSIA THERAPEUTICS, INC., priority 2023, published 2026)
pIC50: −log10 of the molar value. Like-named read-outs stand apart in the source and are kept apart here. Values belong to the molecule of their own block, whether it stands above or below them.

Columns and labels:
Assay type in all cases: biochemical
CDK2/CCNE1 = CDK2/CCNE1 (Homo sapiens, UniProt P24941); experiment: CDK2 homogeneous time-resolved fluorescence (HTRF) kinase assay; conditions: CDK2/CCNE
Summary of the method: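 IC50 derived from 11-point, half-log dilutions (usually top 10 μM) of compound, 1% DMSO. Kinase (3 nM CDK2/CCNE1) was preincubated with compound 20 min, then phosphorylated 50 nM ULight-4E-BP1 peptide at 1 mM ATP for 60 min, 23 °C. Europium-antibody TR-FRET read after EDTA stop.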

CDK1/CCNB1 = CDK1/CCNB1 (Homo sapiens, UniProt P06493); experiment: CDK1 homogeneous time-resolved fluorescence (HTRF) kinase assay; conditions: CDK1/CCNB
Summary of the method: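 Compounds, titrated 11 points in half-log steps typically from 10 μM, were incubated with enzyme for 20 min before ATP (1 mM) and ULight-labelled eIF4E-binding protein 1 peptide (50 nM) started a 60-min reaction at 23 °C. Phosphopeptide was detected by europium-antibody TR-FRET and IC50 values were derived.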

CDK4/CCND3 = CDK4/CCND3 (Homo sapiens, UniProt P11802); experiment: CDK4 homogeneous time-resolved fluorescence (HTRF) kinase assay; conditions: CDK4/CCND
Summary of the method: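 IC50s derive from Lance 665 nm or 665/615 nm signals in 11-point, half-log dose series (top 10 μM, 1% DMSO). The enzyme, 1.5 nM CDK4/CCND3, phosphorylates 50 nM ULight-4E-BP1 peptide with 1 mM ATP over 60 min at 23 °C.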

CDK6/CCND1 = CDK6/CCND1 (Homo sapiens, UniProt Q00534); experiment: CDK6 homogeneous time-resolved fluorescence (HTRF) kinase assay; conditions: CDK6/CCND
Summary of the method: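 Assay conditions: HEPES buffer containing 10 mM MgCl2, 1 mM EGTA, 2 mM DTT, 0.01% Tween 20; 1 nM CDK6/CCND1, 50 nM peptide substrate, 1 mM ATP. Detection after 60 min reaction used 2 nM europium antibody with 340 nm excitation. Potency fitted from half-log series, 11 points.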

[1] = <25 nM, read-out: CDK2/CCNE IC50, <25 nM
[2] = >250 nM, read-out: CDK1/CCNB IC50 >250 nM
[3] = >250 nM, read-out: CDK4/CCND IC50, >250 nM
[4] = >250 nM, 1 mM ATP, read-out: CDK6/CCND IC50, >250 nM
[5] = >250 nM marked x, read-out: CDK1/CCNB IC50 >250 nM
[6] = x = IC50 <25 nM, read-out: CDK2/CCNE IC50 (<25 nM)
[7] = 25-250 nM, read-out: CDK2/CCNE IC50, 25-250 nM

Chain of CDK6/CCND1 (Q00534 whole entry): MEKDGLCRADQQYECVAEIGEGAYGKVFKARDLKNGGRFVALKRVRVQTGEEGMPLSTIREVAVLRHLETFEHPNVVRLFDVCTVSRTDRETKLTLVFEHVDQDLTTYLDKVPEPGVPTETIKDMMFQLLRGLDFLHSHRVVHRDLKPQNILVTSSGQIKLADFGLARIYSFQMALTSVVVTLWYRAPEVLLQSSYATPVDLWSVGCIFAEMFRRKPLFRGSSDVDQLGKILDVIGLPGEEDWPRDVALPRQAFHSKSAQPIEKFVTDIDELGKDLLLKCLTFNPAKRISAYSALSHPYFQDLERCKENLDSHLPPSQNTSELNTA
Chain of CDK6/CCND1 (P24385 whole entry partner): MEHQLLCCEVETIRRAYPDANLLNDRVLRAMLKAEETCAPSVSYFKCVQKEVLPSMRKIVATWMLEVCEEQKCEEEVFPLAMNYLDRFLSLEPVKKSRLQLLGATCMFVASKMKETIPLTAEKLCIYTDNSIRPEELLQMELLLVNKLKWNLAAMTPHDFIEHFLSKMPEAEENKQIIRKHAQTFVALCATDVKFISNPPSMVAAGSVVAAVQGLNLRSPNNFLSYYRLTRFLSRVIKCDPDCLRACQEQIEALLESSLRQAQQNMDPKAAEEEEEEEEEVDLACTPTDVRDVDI
Chain of CDK1/CCNB1 (P06493 whole entry): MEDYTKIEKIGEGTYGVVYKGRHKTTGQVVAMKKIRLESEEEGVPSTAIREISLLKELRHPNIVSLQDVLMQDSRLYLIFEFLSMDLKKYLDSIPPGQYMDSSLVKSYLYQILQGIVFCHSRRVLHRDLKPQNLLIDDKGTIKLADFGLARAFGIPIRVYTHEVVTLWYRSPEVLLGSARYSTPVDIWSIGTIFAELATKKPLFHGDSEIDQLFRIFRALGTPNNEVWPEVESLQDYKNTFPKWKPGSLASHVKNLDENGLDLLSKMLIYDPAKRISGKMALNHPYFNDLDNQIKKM
Chain of CDK1/CCNB1 (P14635 whole entry partner): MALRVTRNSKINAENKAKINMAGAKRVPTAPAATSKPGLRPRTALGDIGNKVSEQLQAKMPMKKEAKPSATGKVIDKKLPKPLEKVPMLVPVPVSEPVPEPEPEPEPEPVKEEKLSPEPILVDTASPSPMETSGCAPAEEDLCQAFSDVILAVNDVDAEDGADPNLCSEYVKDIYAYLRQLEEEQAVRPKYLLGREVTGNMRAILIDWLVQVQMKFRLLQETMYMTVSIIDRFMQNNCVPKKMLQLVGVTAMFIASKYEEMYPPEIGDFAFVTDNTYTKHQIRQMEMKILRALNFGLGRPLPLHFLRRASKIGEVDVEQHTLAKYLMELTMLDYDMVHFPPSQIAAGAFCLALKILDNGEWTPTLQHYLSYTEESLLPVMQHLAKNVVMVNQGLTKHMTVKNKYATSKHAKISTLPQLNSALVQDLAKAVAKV
Chain of CDK4/CCND3 (P11802 whole entry): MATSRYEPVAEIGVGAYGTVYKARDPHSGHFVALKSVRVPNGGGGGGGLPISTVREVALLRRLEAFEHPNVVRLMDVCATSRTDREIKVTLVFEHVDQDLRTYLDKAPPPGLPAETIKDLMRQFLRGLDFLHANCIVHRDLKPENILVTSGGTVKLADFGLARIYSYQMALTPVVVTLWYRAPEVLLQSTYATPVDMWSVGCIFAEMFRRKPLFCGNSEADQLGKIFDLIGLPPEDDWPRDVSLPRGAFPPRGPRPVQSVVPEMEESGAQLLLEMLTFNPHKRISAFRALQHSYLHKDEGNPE
Chain of CDK4/CCND3 (P30281 whole entry partner): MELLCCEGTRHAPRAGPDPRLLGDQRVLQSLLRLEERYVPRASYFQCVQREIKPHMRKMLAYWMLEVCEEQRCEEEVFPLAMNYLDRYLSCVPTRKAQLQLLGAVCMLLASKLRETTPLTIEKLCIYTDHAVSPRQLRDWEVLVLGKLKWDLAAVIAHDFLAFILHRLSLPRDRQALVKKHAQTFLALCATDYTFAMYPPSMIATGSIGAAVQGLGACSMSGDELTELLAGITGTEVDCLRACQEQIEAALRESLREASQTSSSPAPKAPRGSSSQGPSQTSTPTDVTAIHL

pIC50 (CDK2/CCNE1; [1]): > 7.60
pIC50 (CDK1/CCNB1; [2]): < 6.60
pIC50 (CDK4/CCND3; 25-250 nM, read-out: CDK4/CCND IC50, 25-250 nM): 6.60 to 7.60
pIC50 (CDK6/CCND1; 25-250 nM, 1 mM ATP, read-out: CDK6/CCND IC50, 25-250 nM): 6.60 to 7.60
Compound: Cc1c(-c2nccc3cnc(Nc4ccc(S(=O)(=O)NC5CCCNC5)cc4)cc23)ccc2c1cnn2CC(C)(C)O (racemic) [Ex 792, 4-((5-(1-(2-hydroxy-2-methylpropyl)-4-methyl-1H-indazol-5-yl)-2,6-naphthyridin-3-yl)amino)-N-(piperidin-3-yl)benzenesulfonamide]

pIC50 (CDK2/CCNE1; >250 nM, read-out: CDK2/CCNE IC50, >250 nM): < 6.60
pIC50 (CDK1/CCNB1; [2]): < 6.60
pIC50 (CDK4/CCND3; [3]): < 6.60
pIC50 (CDK6/CCND1; [4]): < 6.60
Compound: Cc1c(-c2nccc3cnc(Nc4ccc(S(=O)(=O)N(c5ncccn5)C5CC5)cc4)cc23)ccc2c1cnn2CC(O)(C(F)(F)F)C(F)(F)F [Example 698, N-cyclopropyl-4-((5-(4-methyl-1-(3,3,3-trifluoro-2-hydroxy-2-(trifluoromethyl)propyl)-1H-indazol-5-yl)-2,6-naphthyridin-3-yl)amino)-N-(pyrimidin-2-yl)benzenesulfonamide]

pIC50 (CDK2/CCNE1; [1]): > 7.60
pIC50 (CDK1/CCNB1; [2]): < 6.60
pIC50 (CDK4/CCND3; [3]): < 6.60
pIC50 (CDK6/CCND1; [4]): < 6.60
Compound: COc1cccc(NS(=O)(=O)c2ccc(Nc3cc4c(-c5ccc6c(cnn6CC(C)(C)O)c5C)nccc4cn3)cc2)c1 [Ex 804, 4-((5-(1-(2-hydroxy-2-methylpropyl)-4-methyl-1H-indazol-5-yl)-2,6-naphthyridin-3-yl)amino)-N-(3-methoxyphenyl)benzenesulfonamide]

pIC50 (CDK2/CCNE1; 25-250 nM marked x, read-out: CDK2/CCNE IC50 25-250 nM): 6.60 to 7.60
pIC50 (CDK1/CCNB1; [5]): < 6.60
pIC50 (CDK4/CCND3; >250 nM marked x, read-out: CDK4/CCND IC50 >250 nM): < 6.60
pIC50 (CDK6/CCND1; >250 nM marked x, read-out: CDK6/CCND IC50 >250 nM): < 6.60
Compound: CCC1(CC)C(=O)Nc2cc(C#Cc3nccc4cnc(Nc5ccc(S(=O)(=O)C(C)C)cc5OC)cc34)ccc21 [Ex 338, 3,3-diethyl-6-((7-((4-(isopropylsulfonyl)-2-methoxyphenyl)amino)-2,6-naphthyridin-1-yl)ethynyl)indolin-2-one]

pIC50 (CDK2/CCNE1; [6]): > 7.60
pIC50 (CDK1/CCNB1; x = IC50 >250 nM, read-out: CDK1/CCNB IC50 (>250 nM column)): < 6.60
pIC50 (CDK4/CCND3; x = IC50 >250 nM, read-out: CDK4/CCND IC50 (>250 nM column)): < 6.60
pIC50 (CDK6/CCND1; x = IC50 >250 nM, read-out: CDK6/CCND IC50 (>250 nM column)): < 6.60
Compound: CC(C)(O)c1nc2ccc(C#Cc3nccc4cnc(Nc5ccc(S(C)(=O)=O)cc5)cc34)cc2[nH]1 [Ex 542, 2-(6-((7-((4-(methylsulfonyl)phenyl)amino)-2,6-naphthyridin-1-yl)ethynyl)-1H-benzo[d]imidazol-2-yl)propan-2-ol]

pIC50 (CDK2/CCNE1; [7]): 6.60 to 7.60
pIC50 (CDK1/CCNB1; [2]): < 6.60
pIC50 (CDK4/CCND3; [3]): < 6.60
pIC50 (CDK6/CCND1; [4]): < 6.60
Compound: Cc1c(-c2nccc3cnc(Nc4ccc(S(=O)(=O)Nc5nccc(F)n5)cc4)cc23)ccc2c1cnn2CC(C)(C)O [Ex 881, N-(4-fluoropyrimidin-2-yl)-4-((5-(1-(2-hydroxy-2-methylpropyl)-4-methyl-1H-indazol-5-yl)-2,6-naphthyridin-3-yl)amino)benzenesulfonamide]

pIC50 (CDK2/CCNE1; [7]): 6.60 to 7.60
pIC50 (CDK1/CCNB1; [2]): < 6.60
pIC50 (CDK4/CCND3; [3]): < 6.60
pIC50 (CDK6/CCND1; [4]): < 6.60
Compound: CS(=O)(=O)c1ccc(Nc2cc3c(C#Cc4ccc5c(O)ncnc5c4)nccc3cn2)cc1 [Ex 861, 7-((7-((4-(methylsulfonyl)phenyl)amino)-2,6-naphthyridin-1-yl)ethynyl)quinazolin-4-ol]

pIC50 (CDK2/CCNE1; <25 nM, read-out: CDK2/CCNE IC50 <25 nM): > 7.60
pIC50 (CDK1/CCNB1; [5]): < 6.60
pIC50 (CDK4/CCND3; 25-250 nM marked x, read-out: CDK4/CCND IC50 25-250 nM): 6.60 to 7.60
pIC50 (CDK6/CCND1; 25-250 nM marked x, read-out: CDK6/CCND IC50 25-250 nM): 6.60 to 7.60
Compound: O=C(O)c1ccc(Nc2cc3c(C4=CCCCC4)nccc3cn2)cc1 [Ex 253, 4-((5-(cyclohex-1-en-1-yl)-2,6-naphthyridin-3-yl)amino)benzoic acid]

pIC50 (CDK2/CCNE1; [6]): > 7.60
pIC50 (CDK1/CCNB1; x = IC50 25-250 nM, read-out: CDK1/CCNB IC50 (25-250 nM)): 6.60 to 7.60
pIC50 (CDK4/CCND3; x = IC50 25-250 nM, read-out: CDK4/CCND IC50 (25-250 nM)): 6.60 to 7.60
pIC50 (CDK6/CCND1; x = IC50 25-250 nM, read-out: CDK6/CCND IC50 (25-250 nM)): 6.60 to 7.60
Compound: Cc1c(-c2nccc3cnc(Nc4ccc(S(C)(=O)=O)cc4)cc23)ccc2cn[nH]c12 [Ex 658, 5-(7-methyl-1H-indazol-6-yl)-N-(4-(methylsulfonyl)phenyl)-2,6-naphthyridin-3-amine]
